According to publication PMC8457121, “From Kinase Inhibitors to Multitarget Ligands as Powerful Drug Leads for Alzheimer's Disease using Protein‐Templated Synthesis” (Angewandte Chemie (International Ed. in English), 2021):
pIC50: −log10 of the molar value.

Assays:
LRRK2 = target: T1, LRRK2 (Homo sapiens, UniProt Q5S007); assay: LRRK2 inhibition enzymatic assay (Adapta, ThermoFisher); type: biochemical
T1 construct: purchased ThermoFisher (assay run by the company)

BACE1 [1] = target: T2, BACE1 (Homo sapiens, UniProt P56817); assay: BACE1 enzymatic assay (FRET); type: biochemical
Description: BACE1 enzymatic assay. BACE1 in vitro assays were carried out using FRET.
μM) carrying the Swedish mutation and containing a rhodamine as a fluorescence donor and a quencher acceptor at each end was used. The intact substrate is weakly fluorescent and becomes highly fluorescent upon enzymatic cleavage.
The assays were conducted in 50 mM sodium acetate buffer, pH 4.5, in a final

BACE1 [2] = target: T2, BACE1; assay: In situ click chemistry with BACE1 as template (LC/MS-SIM); conditions: BACE1 0.5 μM, reagents 100 μM, 24 h, room temperature, sodium acetate pH 4.5
Description: confirmed by molecular weight. Control experiments in the absence of BACE1 were set up every time the reactions were performed. Experiment with the presence of BSA (1 mg mL−1) instead of the BACE1 enzyme was performed for […]
LRRK2 inhibition enzymatic assay. The LRRK2 inhibitors were evaluated by the ThermoFisher company under the following Adapta Assay. The assay itself can be divided into two phases: a kinase reaction phase, and an ADP detection phase. In the kinase reaction phase, all components required for the kinase reaction are added to the well, and the reaction is allowed to incubate for 60 minutes. After the reaction, a detection solution consisting of a europium labeled anti-ADP antibody, an Alexa Fluor™ 647 labeled ADP tracer, and EDTA (to stop the kinase reaction) is added to the assay well. ADP formed by the kinase reaction (in the absence of an inhibitor) will displace the Alexa Fluor 647 labeled ADP tracer from the antibody, resulting in a decrease in the TR-FRET signal. In the presence of an inhibitor, the amount of ADP formed by the kinase reaction is reduced, and the resulting intact antibodytracer interaction results in a high TR-FRET signal. ADP formation is determined by calculating the emission ratio from […]
The 2X LRRK2 / ERM (LRRKtide) mixture is prepared in 50 mM Tris pH 8.5, […]
Reaction consists of 3.75 - 70 ng LRRK2 and 200 μM ERM (LRRKtide) in 25 mM […]
NaN3. […]

SK-APP cells = assay: Aβ40 and Aβ42 levels in SK-APP cells (sandwich ELISA); type: cell-based, human; conditions: 10 μM, 48 h treatment
Description: page 35: enzyme concentration (1 U/mL). Inhibitor screening at 10 μM. The mixture was incubated for 60 min at 25 °C under dark conditions and then stopped with 2.5 M sodium acetate. Fluorescence was measured with a FLUOstar Optima (BMG Labtechnologies GmbH, Offenburg, Germany) microplate reader at 545 nm excitation and 585 nm emission. Evaluation of BACE Inhibitors Kinetics. To evaluate the mechanism of BACE1 inhibition of the compounds, substrate-dependent kinetic experiments were performed. BACE activity were measured at five different concentrations substrate (1000 -62,5 μM) in the absence or presence of the select inhibitor at two different concentrations. The results are presented as double reciprocal Lineweaver-Burk plots (1/V vs 1/[S]) Figure S1. Cell culture and treatments. SK-N-MC cells stably expressing the human isoform APP695 (SK-APP cell line […]1) were generated by transfection of SK-N-MC cells with a pCDNA3-APP expression vector, and kindly provided by Dr. MJ Bullido. These cells were cultured in DMEM (Thermo Fisher) medium supplemented with 10% FBS (Thermo Fisher), 1 mM glutamine (Sigma- Aldrich), and 100 unit/ml penicillin (Lonza) and […] streptomycin (Lonza). Cell cultures were maintained in a 5% CO2, humidified atmosphere at 37 °C. SH-SY5Y cells were obtained from the American Type Culture Collection and grown in DMEM media (Gibco), supplemented with 10% foetal bovine serum, and 1% penicillin/streptomycin (Invitrogen). The cells were grown at 37 °C in a humidified 5% CO2 atmosphere. For the treatments, all the compounds were dissolved in dimethyl sulfoxide (DMSO, from Sigma) at an initial stock concentration of 10 mM. […] working solutions were obtained from the dilution of the stock solutions in DMEM media (DMSO control solutions were prepared similarly to the compounds). Okadaic acid (OA, Sigma-Aldrich) was dissolved in DMSO at an initial stock concentration of 60 μM and a 250X working solution was obtained from the dilution of the stock solution in DMEM. All the compounds (250x solutions) were added directly into the wells at the indicated final concentrations for 1 hour before the treatment with OA at a final concentration of 30 nM. DMSO was added at the appropriate concentration to the 34 page 36: control-untreated cells. The cells were maintained in the presence of the OA and the different compounds for 24h. Measurement of cell viability. Cell viability assays were carried out using a 3- […] (Sigma-Aldrich) in 96-well cell culture plates. All cells were then incubated with a 0.5 mg/ml MTT solution (Sigma-Aldrich) at 37 °C for 4 h and then with cell lysis […] The absorbance values were determined at 590 nm. Cell viability was expressed as a percent of OD of control cells, the value of which was defined as 100%. Cell viability in SH-SY5Y were carried out following the same procedure but seeding the cells in 24 well multiplates. Absorbance was measured using a Varioskan Flash multiplate reader (Thermo Scientific) at test 550 nm and reference 664 nm wave-lengths. Compound concentration for SK-APP line was 10 μM and for the SH-SY5Y was 1 and 5 μM. Immunoassays. Levels of Aβ40 and Aβ42 were quantified by sandwich ELISAs (Wako, Osaka, Japan) from cellular lysates and conditioned media collected. CNS penetration: in vitro PAMPA-BBB test. Prediction of the brain penetration was evaluated using a parallel artificial membrane permeability assay (PAMPA).1 Nine quality control compounds (mentioned below) of know BBB permeability were included in each experiment to validate the analysis set.2 Commercial drugs […] dissolved in 250 μL of DMSO (Sigma-Aldrich). 25 μL of these compound stock solutions were taken and 225 μL of DMSO and 4750 μL of PBS pH 7.4 buffer were added to reach 5% of DMSO concentration in the experiment and a final […] Compounds to be determined their ability to pass the brain barrier (0.5-1 mg) were dissolved in 250 μL of DMSO and 4750 μL of PBS pH 7.4 was carefully added to afford a final […]

PAMPA-BBB test = type: in vitro ADME; conditions: PBS pH 7.4 with 5% DMSO
Description: dissolved in 250 µL of DMSO (Sigma-Aldrich). 25 µL of these compound stock
solutions were taken and 225 µL of DMSO and 4750 µL of PBS pH 7.4 buffer
compound concentration in the range of 0.2 to 1.1 mM. Compounds to be
µL of DMSO and 4750 µL of PBS pH 7.4 was carefully added to afford a final
compound concentration in the range of 0.2 to 1.1 mM. Solutions were filtered
using filter PDVF membrane units (diameter 30 mm, pore size 0.45 μm, Symta).
10 µL of each solution were taken and diluted 10-fold with PBS/DMSO (95/5) for
HPLC-MS analysis. The acceptor 96-well plate (Multiscreen®, catalog no.
MAMCS9610, Millipore) was filled with 180 µL of PBS/DMSO (95/5). The donor
96-well plate (Multiscreen® IP Sterile Plate PDVF membrane, pore size is 0.45
M, catalog no. MAIPS4510, Millipore) was coated with 4 µL 20 mg·mL-1 of
for 5 min and then 180 µL of each compound solution was added. Then the donor
plate was put on the acceptor plate and kept for 2.5 h at room temperature. After
incubation, samples were collected from the acceptor plate and diluted 10-fold
with PBS/DMSO (95/5) for HPLC-MS analysis and compared to HPLC-MS of
initial solutions. Absorbance peak of each compound was determined by MS
detection and was used to calculate the concentration of compounds and
Every sample was analysed in two independent
runs. HPLC-MS was performed using a HPLC-MS equipment from Thermo
Fisher coupled to a Finnigan TM LXQ TM detector. Each compound was
analysed using a Sunfire column C18, 3.5 μm (50 mm x 4.6 mm) and acetonitrile
and Milli-Q water (with 0.1% formic acid) as mobile phase. The standard gradient

T2 sequence (P56817 46-501): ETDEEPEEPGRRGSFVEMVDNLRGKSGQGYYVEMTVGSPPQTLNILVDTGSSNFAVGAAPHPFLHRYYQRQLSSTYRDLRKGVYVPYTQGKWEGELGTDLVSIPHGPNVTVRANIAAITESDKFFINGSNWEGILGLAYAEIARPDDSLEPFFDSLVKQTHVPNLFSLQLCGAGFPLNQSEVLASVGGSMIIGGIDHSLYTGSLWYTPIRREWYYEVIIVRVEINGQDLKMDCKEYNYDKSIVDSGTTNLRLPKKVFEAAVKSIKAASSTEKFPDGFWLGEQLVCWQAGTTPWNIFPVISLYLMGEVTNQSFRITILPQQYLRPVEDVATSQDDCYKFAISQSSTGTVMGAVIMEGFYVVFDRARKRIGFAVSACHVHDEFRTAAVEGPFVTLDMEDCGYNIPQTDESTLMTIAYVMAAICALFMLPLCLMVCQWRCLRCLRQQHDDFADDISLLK
T1 sequence (Q5S007 whole entry): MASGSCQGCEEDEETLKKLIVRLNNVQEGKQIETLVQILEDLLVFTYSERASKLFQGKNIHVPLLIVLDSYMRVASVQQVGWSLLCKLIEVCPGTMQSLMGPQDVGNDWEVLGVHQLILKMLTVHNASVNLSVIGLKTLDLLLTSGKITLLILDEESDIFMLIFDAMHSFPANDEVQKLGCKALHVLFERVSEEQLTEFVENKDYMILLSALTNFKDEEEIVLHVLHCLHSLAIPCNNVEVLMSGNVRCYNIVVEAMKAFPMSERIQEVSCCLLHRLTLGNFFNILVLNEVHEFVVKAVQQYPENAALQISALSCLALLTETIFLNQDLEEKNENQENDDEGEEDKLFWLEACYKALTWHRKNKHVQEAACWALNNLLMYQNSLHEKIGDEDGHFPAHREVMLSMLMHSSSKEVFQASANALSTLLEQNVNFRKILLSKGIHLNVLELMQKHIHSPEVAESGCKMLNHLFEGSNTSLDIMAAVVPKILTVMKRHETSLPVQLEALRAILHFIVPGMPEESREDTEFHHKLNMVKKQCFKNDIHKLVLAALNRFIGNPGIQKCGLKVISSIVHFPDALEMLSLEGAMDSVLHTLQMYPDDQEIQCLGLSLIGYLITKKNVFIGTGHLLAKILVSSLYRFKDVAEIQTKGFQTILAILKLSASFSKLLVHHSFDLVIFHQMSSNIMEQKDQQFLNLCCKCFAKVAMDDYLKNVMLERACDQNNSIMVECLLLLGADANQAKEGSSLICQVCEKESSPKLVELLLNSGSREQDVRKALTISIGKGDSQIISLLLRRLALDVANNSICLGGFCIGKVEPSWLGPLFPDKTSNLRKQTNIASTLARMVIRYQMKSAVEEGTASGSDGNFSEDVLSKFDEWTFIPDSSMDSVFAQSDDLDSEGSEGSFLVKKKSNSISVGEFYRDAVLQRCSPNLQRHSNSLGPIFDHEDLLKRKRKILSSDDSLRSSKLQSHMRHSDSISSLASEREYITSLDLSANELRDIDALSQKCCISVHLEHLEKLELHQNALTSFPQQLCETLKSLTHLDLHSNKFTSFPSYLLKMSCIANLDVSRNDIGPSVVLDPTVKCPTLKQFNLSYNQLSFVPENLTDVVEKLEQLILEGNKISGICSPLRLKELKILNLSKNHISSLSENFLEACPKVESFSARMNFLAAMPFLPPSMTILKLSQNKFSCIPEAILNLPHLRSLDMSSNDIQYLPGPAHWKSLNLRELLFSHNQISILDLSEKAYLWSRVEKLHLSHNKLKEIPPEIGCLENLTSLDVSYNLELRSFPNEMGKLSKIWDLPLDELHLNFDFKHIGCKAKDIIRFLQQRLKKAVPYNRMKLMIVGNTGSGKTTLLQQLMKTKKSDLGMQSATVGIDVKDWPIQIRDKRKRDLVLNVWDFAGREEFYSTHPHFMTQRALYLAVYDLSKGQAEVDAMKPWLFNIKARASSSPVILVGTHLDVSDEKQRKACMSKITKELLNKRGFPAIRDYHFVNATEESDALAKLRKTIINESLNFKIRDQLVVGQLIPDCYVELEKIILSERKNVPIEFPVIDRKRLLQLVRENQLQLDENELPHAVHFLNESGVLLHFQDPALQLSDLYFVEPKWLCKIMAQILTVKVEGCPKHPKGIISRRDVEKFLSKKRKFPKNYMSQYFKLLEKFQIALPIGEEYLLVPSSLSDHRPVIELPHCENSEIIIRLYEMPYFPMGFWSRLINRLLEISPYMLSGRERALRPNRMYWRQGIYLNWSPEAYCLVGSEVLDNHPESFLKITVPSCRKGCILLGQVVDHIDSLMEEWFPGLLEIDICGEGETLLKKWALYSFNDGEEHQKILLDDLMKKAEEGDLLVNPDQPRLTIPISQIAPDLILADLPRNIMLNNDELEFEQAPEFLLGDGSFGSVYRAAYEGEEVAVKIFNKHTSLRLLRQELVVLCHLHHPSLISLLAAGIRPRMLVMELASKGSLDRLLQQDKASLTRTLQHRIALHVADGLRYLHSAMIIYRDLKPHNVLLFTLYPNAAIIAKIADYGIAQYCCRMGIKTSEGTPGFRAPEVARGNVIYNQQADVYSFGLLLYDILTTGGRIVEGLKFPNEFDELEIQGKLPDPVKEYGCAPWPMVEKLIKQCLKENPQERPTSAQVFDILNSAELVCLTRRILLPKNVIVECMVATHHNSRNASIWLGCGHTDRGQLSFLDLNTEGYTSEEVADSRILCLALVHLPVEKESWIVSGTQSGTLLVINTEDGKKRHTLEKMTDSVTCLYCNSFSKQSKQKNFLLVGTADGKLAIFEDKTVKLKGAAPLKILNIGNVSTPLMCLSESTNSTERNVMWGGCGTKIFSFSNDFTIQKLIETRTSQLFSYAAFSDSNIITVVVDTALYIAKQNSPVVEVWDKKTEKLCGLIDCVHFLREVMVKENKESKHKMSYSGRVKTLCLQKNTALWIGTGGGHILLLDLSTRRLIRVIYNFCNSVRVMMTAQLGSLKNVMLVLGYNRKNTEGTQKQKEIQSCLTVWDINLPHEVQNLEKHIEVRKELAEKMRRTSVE

Structure (SMILES): O=C(Nc1nc2ccccc2s1)c1ccc(Cn2cc(COc3ccc(C(=O)Nc4nc5ccccc5s4)cc3)nn2)cc1 [compound 8]
- pIC50 (LRRK2): 5.74
- pIC50 (BACE1 [1]): 5.43
- Triazole formation from building blocks in presence of BACE1 (BACE1 [2]): observed
- Aβ40 levels in cellular lysates (SK-APP cells): reducing
- Aβ40 levels in extracellular fluid (SK-APP cells): reducing
- Aβ42 levels in extracellular fluid (SK-APP cells): reducing
- Solubility in the conditions of the PAMPA experiment (PAMPA-BBB test): insoluble
- melting point: 280 to 282 °C (dec.)
